These results are taken from ChEMBL document CHEMBL2375212, “Synthesis and evaluation of novel marine bromopyrrole alkaloid-based hybrids as anticancer agents” (Eur J Med Chem, 2013).

In brackets after ≈: the same amount, converted by molar mass.

Assay [1] deals with Dual specificity mitogen-activated protein kinase kinase 1 (Homo sapiens, UniProt Q02750). Briefly: Inhibition of MEK1 (unknown origin).
The subject of a further assay is PA-1. Briefly: Cytotoxicity against human PA1 cells compound treated for 6 hrs measured 48 hrs post washout by MTT assay. It counts as functional, cell-based.
The next assay deals with WRL68. The assay can be described thus: Cytotoxicity against human WRL68 cells compound treated for 6 hrs measured 48 hrs post washout by MTT assay. It counts as functional, cell-based.
For the next assay, the system named is Caco-2. The assay can be described thus: Cytotoxicity against human Caco2 cells compound treated for 6 hrs measured 48 hrs post washout by MTT assay. It counts as functional, cell-based.
The subject of assay [2] is MCF7. The assay can be described thus: Cytotoxicity against human MCF7 cells compound treated for 6 hrs measured 48 hrs post washout by MTT assay. The assay is classed as functional, cell-based.
Assay [3] in a line: Cytotoxicity against human KB403 cells compound treated for 6 hrs measured 48 hrs post washout by MTT assay. The assay is classed as functional, cell-based.
A further assay concerns HepG2. The assay can be described thus: Cytotoxicity against human HepG2 cells by MTT assay. It counts as functional, cell-based.
The test system of the next assay is P388. Briefly: Cytotoxicity against mouse P388 cells by MTT assay. The note with it: read-out: ED50 (the source's name). It counts as functional.
The subject of assay [4] is MCF7. The assay can be described thus: Cytotoxicity against human MCF7 cells by MTT assay. The assay is classed as functional, cell-based.
The test system of the next assay is COLO 205. The assay can be described thus: Cytotoxicity against human COLO205 cells by MTT assay. The assay is classed as functional, cell-based.
Assay [5] can be described thus: Cytotoxicity against mouse SVEC cells by MTT assay. It counts as functional, cell-based.

Chain of Dual specificity mitogen-activated protein kinase kinase 1 (Q02750 whole entry): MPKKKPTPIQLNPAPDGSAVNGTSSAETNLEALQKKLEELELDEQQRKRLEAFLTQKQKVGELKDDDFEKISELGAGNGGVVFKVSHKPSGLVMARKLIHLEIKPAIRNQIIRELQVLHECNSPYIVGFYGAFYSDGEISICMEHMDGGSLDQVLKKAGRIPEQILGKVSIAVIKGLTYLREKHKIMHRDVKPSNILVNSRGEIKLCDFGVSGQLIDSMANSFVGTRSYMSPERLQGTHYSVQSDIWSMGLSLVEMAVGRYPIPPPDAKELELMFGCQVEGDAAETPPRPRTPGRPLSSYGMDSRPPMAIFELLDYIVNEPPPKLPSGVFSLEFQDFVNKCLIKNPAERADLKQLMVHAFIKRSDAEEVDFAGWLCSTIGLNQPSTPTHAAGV

Take `Nc1nc(C2CCNC(=O)c3[nH]c(Br)c(Br)c32)c[nH]1` (centres undefined): the IC50 in assay [1] was 6 nM.

For `Cn1c(-c2cc(=O)c3ccccc3o2)cc(Br)c1Br`, the IC50 in the assay on PA-1 is 600 nM; in the assay on WRL68 it was not below 100 µM; in the assay on Caco-2 it was not below 100 µM; with MCF7 [2], not below 100000 nM; in [3], 0.67 µM.

With `Cn1c(-c2cc(-c3ccccc3)no2)cc(Br)c1Br`, the IC50 with PA-1 is not below 100000 nM; with WRL68, not below 100 µM; in the assay with Caco-2, 16.6 µM; in the assay on MCF7 [2] it was not below 100000 nM; in assay [3], not below 100 µM.

Consider `Cn1c(-c2cc(-c3ccc[nH]3)no2)cc(Br)c1Br`, for which the IC50 with PA-1 is not below 100000 nM; in the assay with WRL68, not below 100 µM; with Caco-2, not below 100 µM; in the assay with MCF7 [2], not below 100000 nM; in assay [3], 3.1 µM.

As to `Cn1c(-c2cc(-c3ccccc3O)no2)cc(Br)c1Br`, the IC50 with PA-1 was not below 100000 nM; with WRL68, not below 100 µM; in the assay on Caco-2, not below 100 µM; with MCF7 [2], not below 100000 nM; in [3], 2.45 µM.

Turning to `Brc1cc(-c2cc(-c3ccc[nH]3)no2)[nH]c1Br`, the IC50 in the assay on PA-1 is not below 100000 nM; with WRL68, not below 100 µM; with Caco-2, not below 100 µM; in the assay on MCF7 [2] it was not below 100000 nM; in assay [3] it was 4.82 µM.

In the case of `Oc1ccccc1-c1cc(-c2cc(Br)c(Br)[nH]2)on1`, the IC50 is not below 100000 nM in the assay with PA-1; not below 100 µM in the assay on WRL68; not below 100 µM in the assay with Caco-2; not below 100000 nM in the assay with MCF7 [2]; 16.4 µM in assay [3].

`COC(=O)C(NCC(=O)c1cc(Br)c(Br)[nH]1)C(C)C` (centres undefined) gave an IC50 in the assay on HepG2 of 15.3 µg/mL.

As to `COC(=O)C[C@H]1CNC(=O)c2cc(Br)c(Br)n21`, the EC50 in the assay on P388 is 30 µg/mL (≈ 82 µM).

In the assay on MCF7 [4], `O=C(/C=C/c1cccc(Cl)c1)c1ccccc1` displayed an IC50 of 5.25 µg/mL (≈ 21.6 µM).

In turn, `O=c1cc(C2CCCCC2)oc2ccccc12` yielded an IC50 in the assay with HepG2 of 2900 nM.

Consider `c1ccc(-c2cc(COc3ccccc3-c3nc4ccccc4s3)on2)cc1`, for which the IC50 in the assay with COLO 205 worked out at 14.2 µM.

In [5], `COc1cc(-c2cc(-c3cc(OC)c(OC)c(OC)c3)on2)ccc1O` gave an IC50 of 23.5 µM.

`Cn1c(/C=C/C(=O)c2ccccc2O)cc(Br)c1Br`: the IC50 in the assay with PA-1 came out at 1250 nM; with WRL68, 0.33 µM; in the assay on Caco-2 it was 3.16 µM; with MCF7 [2], 2510 nM; in [3], 8.32 µM.

`Cn1c(/C=C/C(=O)c2ccccc2)cc(Br)c1Br`: the IC50 in the assay on PA-1 is not below 100000 nM; in the assay with WRL68 it was not below 100 µM; with Caco-2 it was not below 100 µM; in the assay with MCF7 [2], 35400 nM; in [3], not below 100 µM.

With `Cn1c(/C=C/C(=O)c2ccc[nH]2)cc(Br)c1Br`, the half-inhibitory concentration (IC50) in the assay on PA-1 was 730 nM; with WRL68 it was 2.11 µM; in the assay on Caco-2, not below 100 µM; with MCF7 [2], 450 nM; in [3] it was 0.6 µM.

Consider `COc1ccc(C(=O)/C=C/c2cc(Br)c(Br)n2C)c(OC)c1`, for which the 50% inhibitory concentration (IC50) with PA-1 was 520 nM; in the assay on WRL68 it was 0.64 µM; with Caco-2, not below 100 µM; in the assay on MCF7 [2] it was 80 nM; in [3] it was not below 100 µM.

As to `COc1ccc(OC)c(C(=O)/C=C/c2cc(Br)c(Br)n2C)c1`, the IC50 was 800 nM with PA-1; 3.27 µM in the assay with WRL68; not below 100 µM in the assay with Caco-2; 650 nM in the assay on MCF7 [2]; not below 100 µM in assay [3].

Turning to `Cn1c(/C=C/C(=O)c2ccc(Cl)cc2Cl)cc(Br)c1Br`, the IC50 in the assay with PA-1 is 1000 nM; with WRL68, 14.7 µM; in the assay with Caco-2, not below 100 µM; with MCF7 [2], 1840 nM; in assay [3], not below 100 µM.

For `Cn1c(/C=C/C(=O)c2cccc(O)c2)cc(Br)c1Br`, the IC50 with PA-1 is not below 100000 nM; with WRL68 it was not below 100 µM; in the assay with Caco-2, not below 100 µM; with MCF7 [2] it was 12800 nM; in assay [3], not below 100 µM.

As to `Cn1c(/C=C/C(=O)c2ccc(O)cc2O)cc(Br)c1Br`, the IC50 in the assay with PA-1 worked out at 830 nM; in the assay with WRL68, 0.18 µM; in the assay with Caco-2, 3.53 µM; with MCF7 [2], 1610 nM; in assay [3] it was 12 µM.

For the compound `Cn1c(/C=C/C(=O)c2ccc(O)cc2)cc(Br)c1Br`, the IC50 is 2850 nM in the assay on PA-1; 1.91 µM in the assay on WRL68; 6 µM in the assay with Caco-2; 3120 nM with MCF7 [2]; not below 100 µM in assay [3].

As for `Cn1c(/C=C/C(=O)c2cc(O)ccc2O)cc(Br)c1Br`, the IC50 in the assay on PA-1 is 380 nM; in the assay on WRL68, 0.88 µM; in the assay on Caco-2 it was not below 100 µM; in the assay with MCF7 [2], 320 nM; in assay [3], not below 100 µM.

On to `Cn1c(/C=C/C(=O)c2cccc(N)c2)cc(Br)c1Br`, for which the IC50 is not below 100000 nM in the assay with PA-1; not below 100 µM in the assay on WRL68; not below 100 µM in the assay on Caco-2; 12400 nM with MCF7 [2]; not below 100 µM in assay [3].

For `O=C(/C=C/c1cc(Br)c(Br)[nH]1)c1ccccc1O`, the IC50 in the assay on PA-1 is 330 nM; with WRL68, 1.42 µM; in the assay with Caco-2, not below 100 µM; in the assay on MCF7 [2], 1490 nM; in [3], not below 100 µM.

`O=C(/C=C/c1cc(Br)c(Br)[nH]1)c1ccccc1`: the IC50 with PA-1 was not below 100000 nM; with WRL68, not below 100 µM; in the assay with Caco-2, not below 100 µM; with MCF7 [2], 12200 nM; in [3], not below 100 µM.

Take `O=C(/C=C/c1cc(Br)c(Br)[nH]1)c1ccc[nH]1`: the IC50 in the assay with PA-1 was 500 nM; with WRL68, not below 100 µM; with Caco-2 it was not below 100 µM; with MCF7 [2] it was 72 nM; in assay [3] it was not below 100 µM.

Regarding `COc1ccc(C(=O)/C=C/c2cc(Br)c(Br)[nH]2)c(OC)c1`, the IC50 was 320 nM with PA-1; 9.22 µM in the assay on WRL68; not below 100 µM in the assay on Caco-2; 30 nM with MCF7 [2]; not below 100 µM in assay [3].

For the compound `COc1ccc(OC)c(C(=O)/C=C/c2cc(Br)c(Br)[nH]2)c1`, the IC50 in the assay with PA-1 is 420 nM; with WRL68, 12.3 µM; in the assay with Caco-2, not below 100 µM; in the assay with MCF7 [2], 220 nM; in assay [3] it was not below 100 µM.

Regarding `O=c1cc(-c2cc(Br)c(Br)[nH]2)oc2ccccc12`, the IC50 in the assay with PA-1 was 410 nM; in the assay with WRL68, not below 100 µM; with Caco-2, not below 100 µM; in the assay with MCF7 [2], not below 100000 nM; in assay [3], 1.28 µM.

Consider `CC(=O)O[C@H]1C(=O)[C@@]2(C)[C@H]([C@H](OC(=O)c3ccccc3)[C@]3(O)C[C@H](OC(=O)[C@H](O)[C@@H](NC(=O)c4ccccc4)c4ccccc4)C(C)=C1C3(C)C)[C@]1(OC(C)=O)CO[C@@H]1C[C@@H]2O` [PACLITAXEL], for which the figures for the IC50 (in the assay on PA-1; in assay [3]) were 8 nM and 0.001 µM, respectively.
